The values below come from PubChem BioAssay (NCI).

Several values for one entry are separate records, joined by “and”; a condition that tells them apart may be missing. Identical values can stand only once.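 The compound was tested at five concentrations on cells cultured in 96-well plates, with a 48-hour exposure period. At the GI50, growth is halved. The concentration for full growth arrest is given as TGI.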 Where only a bound is given, the exact number is not on record here.

Holding throughout (assay): DTP human tumour cell line panel, 48 h
Experiment [1] relates to CCRF-CEM leukemia.
Experiment [2] concerns HCC-2998 colon.
The test system of experiment [3] is HOP-62 NSCLC.
In experiment [4] the test system is MCF7 breast.
In experiment [5] the test system is MOLT-4 leukemia.
For experiment [6], the system named is OVCAR-3 ovarian.
Experiment [7] concerns OVCAR-5 ovarian.
Experiment [8] has as its system RPMI-8226 leukemia.
Experiment [9] relates to SF-295 CNS.
Experiment [10] concerns SR leukemia.

By GI50 is commonly meant the concentration that inhibits growth by half. Usually TGI stands for the concentration at which net growth stops. Read a high TGI as less potent growth arrest. Take `COc1ccc(C2CC(c3cccc(Nc4ccnc5cc(Cl)ccc45)c3)=NN2C=O)cc1` (centres undefined): the GI50 in experiment [1] was 0.434 µM; in [2] it was 1.68 µM; in experiment [3] it was 0.747 µM; in experiment [4], 0.361 µM; in experiment [5] it was 0.487 µM; in experiment [6] it was 0.383 µM. The GI50 in experiment [7] is 7.61 µM; in [8], 3.64 µM; in experiment [9], 0.311 µM; in [10], 0.271 µM. For the same compound, the TGI in [2] is more than 100 µM; in experiment [3] it was 27.6 µM; in experiment [4] it was more than 100 µM; in [5] it was more than 100 µM; in experiment [6], 3.59 µM; in experiment [7], more than 100 µM. Besides, the values for the TGI in experiment [8], in [9] and in experiment [10] were more than 24 µM, 2.57 µM and 2.04 µM, respectively.
On to `O=C(Cc1ccc(/C=C/C(=O)c2ncc[nH]2)cc1)Nc1ccc(F)cc1`, for which the GI50 in experiment [1] was 1.68 µM; in experiment [2] it was 5.43 µM; in [3], 2.64 µM; in experiment [4] it was 0.995 µM; in experiment [5] it was 5.74 µM; in [6] it was 1.7 µM. In addition, the GI50 in [7] is 2.6 µM; in experiment [8], 1.27 µM; in experiment [9], 4.74 µM; in experiment [10], 1.11 µM. The TGI in experiment [1] was more than 33.3 µM; in experiment [2] it was 10.9 µM; in experiment [3], 12.7 µM; in experiment [4], 4.62 µM; in experiment [5], more than 33.3 µM; in experiment [6] it was 6.01 µM. Moreover, the TGI in [7] is 9.81 µM; in experiment [8], 7.46 µM; in [9] it was 11.5 µM; in experiment [10] it was 6.41 µM.
Regarding `Nc1nccc(-c2c(-c3ccc(F)cc3)ncn2C2CCNCC2)n1`, the GI50 in [1] is 13.2 µM and 4.52 µM; in experiment [2], 9.58 µM and 3.89 µM; in [3] it was 5.29 µM and 3.85 µM; in experiment [4] it was 0.62 µM and 0.827 µM; in experiment [5], 17.8 µM and 7.16 µM; in experiment [6], 6.78 µM and 4.93 µM. Further, the GI50 in experiment [7] was 9.62 µM and 5.81 µM; in [8] it was 12.6 µM and 7.07 µM; in experiment [9], > 12.4 µM and 5.75 µM; in experiment [10] it was 10.2 µM and 2.23 µM. The concentration for total growth inhibition (TGI) in [1] was more than 25 µM; in experiment [2], > 25 µM and 12.2 µM; in experiment [3] it was more than 25 µM; in experiment [4], more than 17.2 µM; in experiment [5], more than 25 µM; in experiment [6] it was more than 25 µM. Besides, the concentration for total growth inhibition (TGI) in [7], in [8], in experiment [9] and in experiment [10] was more than 25 µM throughout.
For `Cc1cccc(N(C)C(=O)[C@@H]2[C@H](O)CCN2c2nc(C)cc(C(F)(F)F)c2C#N)c1`, the GI50 in experiment [1] is 25.8 µM; in experiment [2], 22.7 µM; in [3] it was 25.8 µM; in experiment [4], 26.1 µM; in [5], 1.98 µM; in experiment [6], 15.2 µM. For the same compound, the GI50 is 25.4 µM in experiment [7], 16.3 µM in experiment [8], 20.3 µM in [9] and 5.24 µM in [10]. Besides, the TGI in experiment [1] was more than 100 µM; in experiment [2], 88.1 µM; in [3], more than 100 µM; in experiment [4], more than 100 µM; in experiment [5], 53.8 µM; in experiment [6], 81.3 µM. The total growth inhibition concentration (TGI) in experiment [7] was 98.2 µM; in experiment [8], 41.6 µM; in experiment [9], 54.2 µM; in [10], 28.6 µM.
For `C=C1CC[C@@H]2[C@](C)(COC(C)=O)[C@H](OC(C)=O)CC[C@@]2(C)[C@@H]1CC(Nc1ccc(S(=O)(=O)NC(C)=O)cc1)C1=CCOC1=O` (some centres undefined), the GI50 was 1.93 µM in [1]; 7.51 µM in experiment [2]; 10.8 µM in experiment [3]; 1.92 µM in experiment [4]; 2.2 µM in experiment [5]; 1.49 µM in experiment [6]. Besides, the GI50 in experiment [7] was 4.82 µM; in [8] it was 1.84 µM; in experiment [9], 11.5 µM; in experiment [10], 0.991 µM. Besides, the TGI is 6.26 µM in [1]; 17.3 µM in experiment [2]; 21.1 µM in experiment [3]; 11.3 µM in experiment [4]; 6.66 µM in [5]; 3.02 µM in experiment [6]. In addition, the TGI in [7] was 15.4 µM; in experiment [8], 6.53 µM; in experiment [9] it was 22 µM; in experiment [10], 18.1 µM.
For the compound `Fc1cc2[nH]ncc2c2c3c(c(-c4cn[nH]c4C(F)(F)F)nc12)CCCC3`, the GI50 is 1.89 µM in experiment [1]; 1.64 µM in experiment [2]; 1.65 µM in experiment [3]; 1.18 µM in experiment [4]; 0.802 µM in experiment [5]; 2.75 µM in [6]. Moreover, the GI50 in [7] was 2.49 µM; in experiment [8], 1.56 µM; in [9] it was 2.15 µM; in experiment [10] it was 0.716 µM. Also, the TGI was more than 100 µM in [1]; 4.99 µM in experiment [2]; 6.19 µM in experiment [3]; more than 100 µM in [4]; 3.75 µM in [5]; more than 100 µM in [6]. Besides, the TGI was 7.43 µM in [7], more than 100 µM in experiment [8], 10.3 µM in [9] and 5.87 µM in experiment [10].
Take `CC1=CC(=O)C2=C(C)CCC3C(C)C(=O)OC3C12` (centres undefined): the TGI in [1], in experiment [2], in experiment [3], in [4], in experiment [5] and in [6] was more than 100 µM throughout. Further, the TGI in experiment [7], in experiment [8], in experiment [9] and in experiment [10] was more than 100 µM in each case.
For `COc1ccc2c(c1OC)C[C@@H]1c3c(cc4c(c3-2)OCO4)CCN1C`, the TGI in [1] was 51.6 µM; in experiment [2] it was 40.3 µM; in experiment [3] it was more than 100 µM; in experiment [4], more than 100 µM; in [5], 47.4 µM; in [6], more than 100 µM. The TGI in [7] is more than 100 µM; in experiment [8], 42.9 µM; in [9], 31.3 µM; in experiment [10], 54.3 µM.
Take `CC(=O)Nc1ccc2c(c1)C(c1ccccc1Cl)=Nc1c(n[nH]c1C)N2`: the GI50 in experiment [1] is 12.2 µM; in experiment [2], 16.7 µM; in experiment [3] it was 5.74 µM; in experiment [4] it was 2.26 µM; in experiment [5] it was 9.75 µM; in experiment [6], 9.06 µM. The GI50 is 24.6 µM in experiment [7], more than 25 µM in [8], 8.22 µM in experiment [9] and 1.16 µM in experiment [10]. Besides, the TGI in experiment [1], in experiment [2], in [3], in [4], in experiment [5] and in experiment [6] was more than 25 µM in each case. Also, the TGI in experiment [7], in experiment [8], in experiment [9] and in experiment [10] was more than 25 µM throughout.
Consider `C/C(=N\NC(=S)N1CCCCC1)c1ccccn1`, for which the GI50 in [1] was less than 0.0143 µM; in [2], 0.243 µM; in [3] it was less than 0.016 µM; in experiment [4] it was less than 0.01 µM; in [5] it was 0.0175 µM; in experiment [6], less than 0.01 µM. Moreover, the GI50 in [7] was 0.054 µM; in [8], 0.016 µM; in experiment [9] it was less than 0.0115 µM; in experiment [10], less than 0.0157 µM. Besides, the TGI in [1] is more than 25.1 µM; in experiment [2], 6.93 µM; in experiment [3], 3.54 µM; in experiment [4], 6.13 µM; in experiment [5] it was 1.69 µM; in experiment [6], 1.69 µM. Besides, the TGI is 13.7 µM in experiment [7], 0.849 µM in experiment [8], 4.5 µM in experiment [9] and 10.7 µM in experiment [10].
As for `CS(=O)(=O)Nc1cncc(-c2ccc3ncnc(Nc4ccc(F)c(Cl)c4)c3c2)c1`, the GI50 is 1.38 µM in experiment [1]; 4.19 µM in experiment [2]; 2.51 µM in experiment [3]; 1.49 µM in [4]; 1.6 µM in experiment [5]; 1.58 µM in experiment [6]. Further, the GI50 in experiment [7] was 2.4 µM; in [8], 2.24 µM; in [9] it was 2.79 µM; in experiment [10] it was 1.78 µM. In addition, the TGI in experiment [1] is 13 µM; in experiment [2], 16.8 µM; in experiment [3] it was 20.2 µM; in experiment [4], 8.77 µM; in experiment [5], 4.65 µM; in experiment [6], 7.19 µM. For the same compound, the TGI in [7] came to 22 µM; in experiment [8] it was 5.42 µM; in [9], 13 µM; in experiment [10], 10.2 µM.
As for `O=c1[nH]c2ccccc2c2ccccc12`, the GI50 in [1], in [2], in experiment [3], in [4], in experiment [5] and in [6] was more than 100 µM each time. Also, the GI50 in [7] was more than 100 µM; in experiment [8] it was more than 100 µM; in experiment [9], more than 100 µM; in experiment [10], 77.3 µM. In addition, the concentration for total growth inhibition (TGI) in experiment [1], in experiment [2], in experiment [3], in experiment [4], in experiment [5] and in [6] was more than 100 µM each time. The TGI in experiment [7], in experiment [8], in experiment [9] and in experiment [10] was more than 100 µM each time.
